From US20260232750A1, “COMPOSITION AND METHOD FOR INHIBITING ADVANCED GLYCATION END PRODUCTS” (ACCESS BUSINESS GROUP INTERNATIONAL LLC, priority 2022, published 2026)
Counter-ions that a name gives are not always drawn.

How the values were obtained:
[1] = test system: CML expression in human dermal fibroblasts (HDFs); assay: Anti-glycation activity on HDFs (CML immunofluorescence, glyoxal/MGO-induced); type: cell-based
Protocol: HDFs cells were digested from T75 flasks and seeded to 12 well culture plate on slides at 50,000 cells per well. After 48 h the cells were treated by 0.5 mM glyoxal for 48 h. Then the cells were treated with or without positive controls or active samples for an additional 48 h. At the end of the experiment, cell slides were washed once by phosphate-buffered saline (PBS) and fixed in polyformaldehyde overnight at 4° C. For […] (CML) biomarker staining, the slides were blocked in 1% bovine serum albumin (BSA) for 1 h then applied with primary CML antibody (1:50) overnight at 4° C. The next day secondary antibody (1:1000) was applied for 2 h at room temperature. […] Image J was used to quantified CML expression from different visions randomly picked by each group. Data is presented as the mean±SD, and analyzed with Student's t-test or one-way ANOVA. * P<0.05, ** P<0.01, *** P<0.001. […]
HDFs were cultured in high-glucose DMEM supplemented with 10% FBS containing 100 µg/ml of PS at 37° C. in a humidified 5% CO2 incubator. Cell viability was assessed using the CCK-8 kit. […] Counterstaining was performed by adopting anti-fluorescence quenching and sealing liquid containing DAPI, followed by visualisation and fluorescence image capture using a microscope (Leica, Germany). ImageJ software was used to quantify CML expression from different images randomly selected in each group.

[2] = test system: AGEs in wild type AB zebrafish; assay: Anti-glycation activity on zebrafish (AGEs increase model, 0.4 M glucose); type: in vivo; details: 200 μg/mL, 5 dpf zebrafish, 24 h
Protocol: Zebrafish were all fed in fish culture water at 28° C. (water quality: 200 mg instant sea salt was added to 1 L reverse osmosis water, the conductivity was 450-550 μS/cm; PH 6.5~8.5; Hardness of 50-100 mg/L CaCO3), provided by a fish breeding center, experimental animal use license number: SYXK (Zhejiang) 2012-0171, feeding management in line with the international AAALAC certification (certification number: 001458) requirements. Wild type AB zebrafish are bred naturally in pairs. Zebrafish aged 5 days after fertilization (DPF) were used to evaluate the anti-aging efficacy of samples.
Five DPF wild type AB zebrafish were randomly selected and placed in 1.5 mL centrifuge tubes, with 10 zebrafish in each tube (experimental group). The extracts of Dendrobium officinale flower were given in aqueous solution with positive control aminoguanidine hydrochloride (AG) concentration of 200 μg/mL, and normal control group and model control group were set at the same time. The volume of each tube was 150 μL. […] After 24 h treatment on a 60° C. shaker, the supernatant was centrifuged and the data were collected using a multifunctional microplate reader, the fluorescent values of AGEs in each experimental group were analyzed, and the results of statistical analysis of this indicator were used to evaluate the anti-aging efficacy of samples.

[3] = test system: fluorescent AGEs (BSA-fructose/glucose system); assay: Fluorescent AGEs formation in a BSA-fructose/glucose system; type: biochemical, bovine
Protocol: The formation of total fluorescent AGEs in glycated samples was assessed by determining their fluorescent intensities at an excitation/emission wavelength of 350/450 nm, as previously described. Glycated protein was prepared in vitro by incubating BSA in the presence of D-glucose (GLC) and D-fructose (FRC). The DOF extract and specific standards were dissolved in DMSO:water (1:4). BSA (4 mg/ml, 100 μl) was preliminary mixed with 50 μl of GLC (0.5 M) and 50 μl of FRC (0.5 M) in 20 mM sodium phosphate buffer (pH 7.4), and then 100 μl samples were added in the 96-well plate and incubated at 37.5° C. for 7 days. All solutions were prepared under sterile conditions and filtered using a 0.22-μm syringe before incubation. The assay was performed in triplicate, and AG was used as a positive control.

- IC50, fluorescent AGEs ([3]; BSA-fructose/glucose, 37.5° C., 7 days, text b277): 177.3 ± 11.6 µg/mL
- IC50 ([3]; read-out: IC50, AGE formation): 1600 µM
SMILES: N=C(N)NN [Aminoguanidine hydrochloride]
- Anti-glycation effect, CML expression, AVE ([1]; 0.1 mM, 48 h after 0.5 mM glyoxal, Glyoxal = 100.00): 11.89
- inhibition of glycation ([1]; positive compound AG, MGO-induced HDFs, CML IF): 88.11%
- AGEs fluorescence value (mean ± SE) [2]: 35106 ± 770
